# Data taken from US8609870B2, “Treating various disorders using TrkB agonists” (Emory University, priority 2008, dated 2013).
# Legend:
# [1] = biological target: T1, TrkB (Homo sapiens, UniProt Q16620); assay: TrkB dimerization assay (GST pull-down, transfected HEK293 cells); type: cell-based
# T1 construct: expressed in transfected cells; host or cells: HEK293
# Experimental: HEK293 cells transfected with GST-TrkB and HA-TrkA or TrkB were washed once in PBS, and lysed in 1 ml lysis buffer (50 mM Tris, pH 7.4, 150 mM NaCl, 1 mM EDTA, 0.5% Triton X-100, 1.5 mM Na3VO4, 50 mM NaF, 10 mM sodium pyrophosphate, 10 mM sodium β-glycerophosphate, 1 mM phenylmethylsulfonyl fluoride (PMSF), […], […] leupeptin, […] pepstatin A), and centrifuged for 10 minutes at 14,000×g at 4° C. The supernatant was then transferred to a fresh tube and transfected TrkB receptor was pulled down with glutathione beads. The coprecipitated proteins were resolved on SDS-PAGE. The samples were transferred to a nitrocellular membrane, and immunoblotting analysis was performed with a variety of antibodies.
# BDNF is known to bind the TrkB receptor and provoke its dimerization (Barbacid, J. Neurobiol., 25:1386-1403, 1994; Klein et al, Cell, 66:395-403, 1991). To explore whether an identified active compound triggers TrkB receptor dimerization, HEK293 cells are cotransfected with GST-TrkB and HA-TrkB or HA-TrkA. The cells then are treated with BDNF or an identified active compound (0.5 μM) for 30 minutes. […]
# [2] = tested on: hippocampal neurons; assay: Glutamate-triggered apoptosis in hippocampal neurons (MR(DEVD)2 / condensed nuclei); type: cell-based; conditions: 0.5 μM preincubated 30 min, then 50 μM glutamate 16 h
# Experimental: To create and test reporter cell lines. In order to identify small molecules that mimic BDNF and activate TrkB, TrkB stably transfected murine cell lines are created. The T48 and T62 cell lines are created by transfecting basal forebrain SN56 cells, which express negligible TrkB, with a TrkB expression construct. To test expression of TrkB, the cells are treated with BDNF, which is predicted to result in strong phosphorylation of Trk-490 and Akt activation in comparison to the TrkA NTR stably expressing T17 cell line indicating expression of TrkB. To test resistance to apoptosis, the SN56 cells and the T48 cell line are either untreated or treated with BDNF, and then are subjected to an apoptotic assay. The apoptotic assay involves treating the cells with 0.75 μM Staurosporine for 9 hours, and 1 hour before completing the experiment, the cells are treated with 10 μM MR (DEVD)2. The cells then are fixed with 4% paraformaldehyde for 15 minutes, washed with phosphate buffered saline (PBS), and incubated with Hoechst 33342 for 10 minutes. Cover slides are washed with PBS, mounted, and then the cells are examined using a fluorescent microscope to see which cells turn red upon caspase cleavage.
# To compare the apoptosis inhibitory activity of identified active compounds, the compounds are preincubated with SN56 and T48 cells, and subsequently are subjected to the fluorescent apoptotic assay as described above. To examine whether these identified active compounds promote neuronal survival, hippocampal neurons are prepared and the cultures are pretreated with the identified active compounds for 30 minutes, followed by treatment with 50 μM glutamate for 16 hours.
# Using a cell-based screen as described above in Example 1 (based on the anti-apoptotic action of TrkB signaling) and the chemical library from the Spectrum Collection (described above), 66 positive hits were generated, four of which were gedunin derivatives. […] In this assay, neurons with both cleaved caspase (MR (DEVD)2 red cells) and condensed nuclei (DAPI staining) were counted as apoptotic cells. […]
# [3] = tested on: hippocampal neurons; assay: Oxygen-glucose deprivation (OGD) apoptosis in hippocampal neurons; type: cell-based; conditions: apoptotic ratio compared to BDNF and DMSO
# [4] = biological target: TrkB intra-cellular domain (ICD) (Homo sapiens, UniProt Q16620); assay: [3H]-deoxygedunin ligand binding assay, TrkB ICD; conditions: increasing concentrations of radioligand
# Sequence of TrkB intra-cellular domain (ICD) (Q16620 455-822 limits assumed): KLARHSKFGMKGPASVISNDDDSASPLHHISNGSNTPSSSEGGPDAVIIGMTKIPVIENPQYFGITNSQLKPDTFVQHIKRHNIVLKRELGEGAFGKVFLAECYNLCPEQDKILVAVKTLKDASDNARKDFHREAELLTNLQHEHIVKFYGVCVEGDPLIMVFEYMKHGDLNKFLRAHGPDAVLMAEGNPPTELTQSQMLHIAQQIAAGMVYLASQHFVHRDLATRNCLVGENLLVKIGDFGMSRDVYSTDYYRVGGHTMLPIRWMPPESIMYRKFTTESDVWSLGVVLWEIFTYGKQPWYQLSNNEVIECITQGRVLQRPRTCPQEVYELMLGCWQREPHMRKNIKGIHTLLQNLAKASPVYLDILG
# Experimental: (§1) Purified TrkB ECD or ICD proteins (10 μg/each) were incubated with different [^3H-deoxygedunin] in 1 ml binding buffer (0.05 M Na/K phosphate buffer (pH 7.1), 200 mM NaCl) (1 nM [^3H]deoxygedunin˜82300 cpm) at 4° C. for 10 minutes. After incubation, the reaction mixture was loaded on filter paper and washed with 3×5 ml Tris buffer (100 mM Tris, pH 7.1). The dried filter paper was put into a small vial and subjected to liquid scintillation counter analysis. The value of the dissociation constant and the number of sites were obtained from Scatchard plots by using the equation r/[L]free=n/Kd−r/Kd, where r is the ratio of the concentration of bound ligand to the total protein concentration and n is the number of binding sites.
# To determine whether an identified active compound physically and directly binds to the TrkB receptor, in vitro binding assays can be conducted with purified TrkB extracellular domain (ECD) and intracellular domain (ICD) recombinant proteins. Purified TrkB ECD and ICD (10 μg of each) are incubated with different concentrations of ^3H-labeled identified active compound in 1 ml of binding buffer (0.05M Na/K phosphate buffer, pH 7.1, 200 mM NaCl) at 4° C. for 10 minutes. After the incubation, the reaction mixture is loaded on filter paper. […]
# [5] = biological target: TrkA (Homo sapiens, UniProt P04629); assay: [3H]-deoxygedunin ligand binding assay, TrkA
# Sequence of TrkA (P04629 33-796, species assumed): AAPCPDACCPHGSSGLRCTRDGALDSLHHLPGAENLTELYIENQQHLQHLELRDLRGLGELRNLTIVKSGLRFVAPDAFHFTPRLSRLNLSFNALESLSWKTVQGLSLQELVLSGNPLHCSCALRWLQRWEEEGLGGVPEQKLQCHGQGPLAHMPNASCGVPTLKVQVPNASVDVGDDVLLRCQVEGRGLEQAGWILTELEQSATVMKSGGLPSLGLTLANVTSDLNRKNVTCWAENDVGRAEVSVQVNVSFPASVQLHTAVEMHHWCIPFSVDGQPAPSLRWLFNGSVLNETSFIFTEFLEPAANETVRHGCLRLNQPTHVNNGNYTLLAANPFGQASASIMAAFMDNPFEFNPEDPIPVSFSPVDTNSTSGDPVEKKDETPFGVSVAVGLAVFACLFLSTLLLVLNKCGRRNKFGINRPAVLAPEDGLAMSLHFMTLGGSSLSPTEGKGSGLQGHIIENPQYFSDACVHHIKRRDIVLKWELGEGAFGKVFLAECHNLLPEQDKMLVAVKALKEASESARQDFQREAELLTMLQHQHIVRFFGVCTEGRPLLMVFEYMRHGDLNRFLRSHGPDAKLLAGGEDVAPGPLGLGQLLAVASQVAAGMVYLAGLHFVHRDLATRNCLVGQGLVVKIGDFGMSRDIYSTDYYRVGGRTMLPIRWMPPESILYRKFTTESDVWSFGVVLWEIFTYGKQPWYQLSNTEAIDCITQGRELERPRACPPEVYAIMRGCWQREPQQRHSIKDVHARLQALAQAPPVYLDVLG
# [6] = biological target: TrkB extra-cellular domain (ECD) (Homo sapiens, UniProt Q16620); assay: [3H]-deoxygedunin ligand binding assay, TrkB ECD (Scatchard plot); conditions: increasing concentrations of radioligand
# Sequence of TrkB extra-cellular domain (ECD) (Q16620 32-430 limits assumed): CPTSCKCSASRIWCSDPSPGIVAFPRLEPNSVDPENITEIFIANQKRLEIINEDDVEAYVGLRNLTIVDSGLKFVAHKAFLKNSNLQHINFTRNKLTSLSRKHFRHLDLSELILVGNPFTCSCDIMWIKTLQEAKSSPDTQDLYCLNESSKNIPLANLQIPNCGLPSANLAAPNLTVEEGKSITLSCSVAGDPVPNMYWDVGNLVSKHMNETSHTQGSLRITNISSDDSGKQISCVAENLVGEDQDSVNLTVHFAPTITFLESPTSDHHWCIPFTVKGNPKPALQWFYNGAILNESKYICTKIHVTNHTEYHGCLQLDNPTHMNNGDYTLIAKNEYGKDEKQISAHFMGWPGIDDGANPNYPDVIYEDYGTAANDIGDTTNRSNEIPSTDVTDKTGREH
# Experimental: as §1
# To determine whether an identified active compound physically and directly binds to the TrkB receptor, in vitro binding assays can be conducted with purified TrkB extracellular domain (ECD) and intracellular domain (ICD) recombinant proteins. Purified TrkB ECD and ICD (10 μg of each) are incubated with different concentrations of ^3H-labeled identified active compound in 1 ml of binding buffer (0.05M Na/K phosphate buffer, pH 7.1, 200 mM NaCl) at 4° C. for 10 minutes. After the incubation, the reaction mixture is loaded on filter paper. The mixture is washed three times with Tris buffer (100 mM Tris, pH 7.1), and the dried filter paper is put into a small vial and subjected to liquid scintillation counter analysis. […] The value of the dissociate constant and the number of sites will then be obtained from Scatchard plots using the equation r/[L]free=n/Kd−r/Kd, where r is the ratio of the concentration of bound ligand to the total protein concentration and n is the number of binding sites.
# To determine whether deoxygedunin binds the intra-cellular domain (ICD) or extra-cellular domain (ECD) of the TrkB receptor, ligand binding assays with [^3H]-deoxygedunin were performed. […] The coprecipitated HA-TrkB was also prominently tyrosine phosphorylated (see FIG. 14, 3rd panel).
# T1 sequence (Q16620 32-822, species assumed): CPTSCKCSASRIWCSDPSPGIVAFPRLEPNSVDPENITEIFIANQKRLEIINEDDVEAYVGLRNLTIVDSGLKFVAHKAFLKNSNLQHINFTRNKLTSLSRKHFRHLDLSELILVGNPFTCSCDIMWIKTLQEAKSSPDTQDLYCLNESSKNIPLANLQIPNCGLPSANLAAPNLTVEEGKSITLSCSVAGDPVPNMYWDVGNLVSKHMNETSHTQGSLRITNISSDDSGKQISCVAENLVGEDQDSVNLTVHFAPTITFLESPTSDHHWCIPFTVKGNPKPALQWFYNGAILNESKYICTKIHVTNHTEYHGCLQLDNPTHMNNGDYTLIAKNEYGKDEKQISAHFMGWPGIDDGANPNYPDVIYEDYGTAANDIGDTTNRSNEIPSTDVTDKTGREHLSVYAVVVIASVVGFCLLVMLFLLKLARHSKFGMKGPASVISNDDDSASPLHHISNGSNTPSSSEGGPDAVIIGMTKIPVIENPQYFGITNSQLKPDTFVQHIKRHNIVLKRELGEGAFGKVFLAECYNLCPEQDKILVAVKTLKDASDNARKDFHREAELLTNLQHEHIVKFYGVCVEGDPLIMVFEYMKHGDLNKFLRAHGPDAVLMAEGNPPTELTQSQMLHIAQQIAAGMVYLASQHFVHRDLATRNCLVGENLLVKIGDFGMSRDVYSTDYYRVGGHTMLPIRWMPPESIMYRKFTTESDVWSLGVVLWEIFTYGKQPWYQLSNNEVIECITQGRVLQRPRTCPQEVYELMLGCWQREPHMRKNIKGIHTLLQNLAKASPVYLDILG
# T1 sequence (Q16620 32-822, species assumed): as above
Molecule,TrkB dimerization [1],protective effect (apoptosis inhibitory activity) [2],protective effects on hippocampal neurons under OGD [3],binding to TrkB ICD [4],binding to TrkA [5],binding to TrkB ECD [6]
"CC(=O)O[C@@H]1CC2C(C)(C)[C@H](O)CC[C@]2(C)C2CC[C@@]3(C)[C@H](c4ccoc4)OC(=O)C4OC43[C@@]21C (stereo partly drawn) [alpha-dihydrogedunol (epoxy ring down), alphadihydrogedunol (epoxy ring down)]",notably promoted TrkB dimerization,protective effect,potent protective effects,–,–,–
32-[^3H]3-deoxygedunin [[^3H]-deoxygedunin],–,–,–,not the intra-cellular domain (ICD),did not bind to TrkA,progressively bound
